Test results as given in patent publication US20230322789A1, “PYRAZOLOPYRIDAZINONE COMPOUND, AND PHARMACEUTICAL COMPOSITION AND USE THEREOF” (BroadenBio Co., Ltd., priority 2020, published 2023).

Experiments:
HPK1 = HPK1 (Homo sapiens (Human), UniProt Q92918); test: HPK1 kinase activity inhibition test (ADP-Glo, luminescence); type: biochemical; conditions: HPK1 5 nM, ATP 2 μM, read-out: IC50, inhibitory effects of compounds on HPK1 kinase activity
In short: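 HPK1 autophosphorylation was run without added substrate. Kinase and compound were preincubated 10 min at 25° C., then ATP was added for 60 min at 25° C. ADP formed was detected by ADP-Glo luminescence, and IC50 was taken from a four-parameter nonlinear fit.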

Human Jurkat-E6-1 cells = test: Measurement of IL-2 secretion of Jurkat cells by ELISA; type: cell-based; conditions: Homo sapiens, Jurkat E6.1, anti-CD3/anti-CD28 stimulation 24 hours, read-out: Percentage of the amount of IL-2 secreted from compound treated/DMSO-treated cells; for activity at 3 µM: test compound 3.0 μM
In short: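 Jurkat-E6-1 cells pre-incubated with compound for 30 min at 37° C, then stimulated 24 h with plate-bound anti-CD3 plus soluble anti-CD28. Secreted IL-2 in medium quantified by sandwich ELISA against a standard curve; expressed as percent of DMSO-treated cells.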

Sequence of HPK1 (Q92918 whole entry): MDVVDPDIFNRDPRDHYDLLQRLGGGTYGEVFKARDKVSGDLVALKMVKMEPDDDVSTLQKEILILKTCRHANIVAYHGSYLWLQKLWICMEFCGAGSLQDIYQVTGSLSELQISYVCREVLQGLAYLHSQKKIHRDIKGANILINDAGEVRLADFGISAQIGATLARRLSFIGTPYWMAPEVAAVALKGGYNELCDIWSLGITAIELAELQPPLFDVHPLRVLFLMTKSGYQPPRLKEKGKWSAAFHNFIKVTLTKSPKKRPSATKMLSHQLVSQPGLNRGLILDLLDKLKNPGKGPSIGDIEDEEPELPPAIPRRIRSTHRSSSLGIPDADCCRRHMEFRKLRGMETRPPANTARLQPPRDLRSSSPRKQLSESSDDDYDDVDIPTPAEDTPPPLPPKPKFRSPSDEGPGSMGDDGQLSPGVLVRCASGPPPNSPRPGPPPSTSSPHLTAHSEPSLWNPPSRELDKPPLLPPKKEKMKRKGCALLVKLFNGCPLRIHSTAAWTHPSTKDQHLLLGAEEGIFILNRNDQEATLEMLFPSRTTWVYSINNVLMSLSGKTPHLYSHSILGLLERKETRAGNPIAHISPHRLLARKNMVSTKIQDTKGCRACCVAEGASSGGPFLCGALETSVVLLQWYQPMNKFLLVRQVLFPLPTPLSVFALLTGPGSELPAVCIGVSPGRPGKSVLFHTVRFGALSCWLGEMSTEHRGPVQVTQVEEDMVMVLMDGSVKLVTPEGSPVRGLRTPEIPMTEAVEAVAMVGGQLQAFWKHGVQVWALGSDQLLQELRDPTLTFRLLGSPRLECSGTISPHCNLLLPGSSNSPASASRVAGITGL

| IC50 (HPK1) | SMILES | activity at 3 µM (Human Jurkat-E6-1 cells) | activity at 1 µM (Human Jurkat-E6-1 cells; test compound 1.0 μM) |
| --- | --- | --- | --- |
| ≤ 50 nM | COc1cccc(F)c1-n1nc2c(-c3ccc(N4CCC(C)(OC)CC4)cc3)n[nH]c2cc1=O [Compound 141, 5-(2-fluoro-6-methoxyphenyl)-3-(4-(4-methoxy-4-methylpiperidin-1-yl)phenyl)-1H-pyrazolo[4,3-c]pyridazin-6(5H)-one] | 390% | – |
| ≤ 50 nM | COc1cccc(F)c1-n1nc2c(-c3cnc(N4CCOCC4)s3)n[nH]c2cc1=O [Compound 148] | – | 531% |
| 50 to 500 nM | Cc1cc(C#N)cc(F)c1-n1nc2c(-c3ccc(N4CCN(C)CC4)nc3)n[nH]c2cc1=O [Compound 99, 3-fluoro-5-methyl-4-(3-(6-(4-methylpiperazin-1-yl)pyrid-3-yl)-6-oxo-1H-pyrazolo[4,3-c]pyridazin-5(6H)-yl)benzonitrile] | 237% | – |

| SMILES | IC50 (HPK1) | activity at 3 µM (Human Jurkat-E6-1 cells) | activity at 1 µM (Human Jurkat-E6-1 cells; test compound 1.0 μM) |
| --- | --- | --- | --- |
| Cc1cccc(F)c1-n1nc2c(-c3ccc(N4CC5CCC(C4)N5CCO)cc3)n[nH]c2cc1=O [Compound 117, 5-(2-fluoro-6-methylphenyl)-3-(4-(8-(2-hydroxyethyl)-3,8-diazabicyclo[3.2.1]octan-3-yl)phenyl)-1H-pyrazolo[4,3-c]pyridazin-6(5H)-one] | ≤ 50 nM | 566% | – |
